# Laboratory results reported in patent publication US20150315188A1, “COMPOUNDS AND METHODS FOR TREATMENT OF HYPERTENSION” (MEDIVATION TECHNOLOGIES, INC., priority 2012, published 2015).
# What was measured:
# [1] = target: T1, Human adrenergic α2A receptor (Homo sapiens, UniProt P08913); experiment: Radioligand binding, adrenergic α2A (Protocol Group B); parameters: purchased Milipore (Millipore); details: Protocol Group B; for Percentage inhibition of ligand binding, Adrenergic α2A (0.1 μM): 0.1 μM compound; for Percentage inhibition of ligand binding, Adrenergic α2A (0.3 μM): 0.3 μM compound; for Ki: estimated Ki
# T1 sequence (P08913 1-465): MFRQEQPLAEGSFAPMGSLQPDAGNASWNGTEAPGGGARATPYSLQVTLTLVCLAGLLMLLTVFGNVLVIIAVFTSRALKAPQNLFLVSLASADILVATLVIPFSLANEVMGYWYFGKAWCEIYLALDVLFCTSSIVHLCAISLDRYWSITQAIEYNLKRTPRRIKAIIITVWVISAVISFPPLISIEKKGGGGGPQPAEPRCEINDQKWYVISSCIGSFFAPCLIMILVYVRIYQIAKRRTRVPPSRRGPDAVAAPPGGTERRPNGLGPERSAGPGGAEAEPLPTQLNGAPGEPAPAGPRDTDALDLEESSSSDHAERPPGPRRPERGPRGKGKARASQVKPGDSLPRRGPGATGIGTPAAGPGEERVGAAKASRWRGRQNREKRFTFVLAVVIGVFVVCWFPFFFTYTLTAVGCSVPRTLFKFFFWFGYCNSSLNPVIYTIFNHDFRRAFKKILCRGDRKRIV
# How it was run: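 Compounds (1% DMSO vehicle, various concentrations) competed against 2 nM [^3H]MK-912 on recombinant receptor membranes for 60 min at 25° C, Tris-HCl pH 7.4 buffer with Mg2+, Ca2+, BSA. Bound radioligand filtered and counted; 10 μM rauwolscine set nonspecific binding. Values: percent inhibition of specific binding or estimated Ki.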
# [2] = target: T2, Human adrenergic α2B receptor (Homo sapiens, UniProt P18089); experiment: β-Arrestin GPCR functional assay, adrenergic α2B (Protocol B); format: cell-based; details: β-arrestin, antagonist vs nor-epinephrine EC80; read-out: IC50 Adrenergic α2B
# T2 sequence (P18089 1-450): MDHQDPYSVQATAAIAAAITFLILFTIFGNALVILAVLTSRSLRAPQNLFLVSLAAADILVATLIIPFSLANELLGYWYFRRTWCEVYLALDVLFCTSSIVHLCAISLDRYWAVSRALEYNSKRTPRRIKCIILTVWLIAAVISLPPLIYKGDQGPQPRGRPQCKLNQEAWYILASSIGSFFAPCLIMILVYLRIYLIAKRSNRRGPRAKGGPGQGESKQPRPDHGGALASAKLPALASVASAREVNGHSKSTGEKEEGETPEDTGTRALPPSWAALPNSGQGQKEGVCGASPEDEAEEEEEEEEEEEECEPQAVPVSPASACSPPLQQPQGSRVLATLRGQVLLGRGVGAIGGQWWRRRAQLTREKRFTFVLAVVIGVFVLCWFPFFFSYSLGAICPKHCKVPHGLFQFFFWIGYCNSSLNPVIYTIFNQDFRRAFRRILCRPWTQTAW
# How it was run: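 CHO cells overexpressing human α2B (PathHunter β-arrestin), 12,000 per well, 24 h at 37° C; compounds in 1% DMSO 30 min, then 50 nM norepinephrine (EC80) 90 min at 37° C.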
# [3] = target: T3, Human adrenergic α1B receptor (Homo sapiens, UniProt P35368); experiment: Radioligand binding, adrenergic α1B (Protocol Group B); parameters: purchased Milipore (Millipore); details: Protocol Group B; for Percentage inhibition of ligand binding, Adrenergic α1B (0.1 μM): 0.1 μM compound; for Percentage inhibition of ligand binding, Adrenergic α1B (0.3 μM): 0.3 μM compound; for Ki: estimated Ki
# T3 sequence (P35368 1-520): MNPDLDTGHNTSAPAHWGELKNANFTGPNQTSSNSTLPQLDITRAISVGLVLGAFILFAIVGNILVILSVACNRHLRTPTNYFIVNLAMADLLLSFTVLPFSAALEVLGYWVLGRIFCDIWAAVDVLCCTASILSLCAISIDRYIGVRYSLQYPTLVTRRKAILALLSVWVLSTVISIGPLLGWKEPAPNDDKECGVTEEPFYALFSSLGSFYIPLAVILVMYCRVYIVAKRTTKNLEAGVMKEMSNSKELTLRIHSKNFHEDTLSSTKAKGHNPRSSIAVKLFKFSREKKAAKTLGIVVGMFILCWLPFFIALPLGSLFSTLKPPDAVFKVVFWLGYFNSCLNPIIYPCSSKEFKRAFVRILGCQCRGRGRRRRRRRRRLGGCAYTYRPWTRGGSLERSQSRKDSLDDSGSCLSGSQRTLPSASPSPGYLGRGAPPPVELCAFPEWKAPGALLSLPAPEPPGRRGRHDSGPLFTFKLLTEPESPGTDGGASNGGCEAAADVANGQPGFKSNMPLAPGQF
# How it was run: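 Values are percent inhibition of specific [3H]prazosin (0.3 nM) binding or estimated Ki, from filtration counting. Human α1B recombinant membranes, Tris-HCl pH 7.4 buffer with MgCl2 and EDTA, 60 min at 25 °C, 1% DMSO vehicle; 10 μM prazosin defined nonspecific binding.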
smiles,measurement,setting,value
"Cc1cc(Cl)c2c(c1)c1c(n2CC(C)(O)c2ccncc2)CCN2CCCC12 (single isomer, unassigned) [91b]","Percentage inhibition of ligand binding, Adrenergic α2A (0.1 μM)",[1],67%
same,"Percentage inhibition of ligand binding, Adrenergic α2A (0.3 μM)",[1],86%
same,Ki,[1],28.4 nM
same,IC50,[2],18.7 nM
same,"Percentage inhibition of ligand binding, Adrenergic α1B (0.1 μM)",[3],43%
same,"Percentage inhibition of ligand binding, Adrenergic α1B (0.3 μM)",[3],68%
same,Ki,[3],38.2 nM
"CC(O)(Cn1c2c(c3cc(Cl)cc(F)c31)C1CCCN1CC2)c1ccncc1 (single isomer, unassigned) [52b]","Percentage inhibition of ligand binding, Adrenergic α2A (0.1 μM)",[1],72%
same,"Percentage inhibition of ligand binding, Adrenergic α2A (0.3 μM)",[1],78%
same,Ki,[1],21.7 nM
same,IC50,[2],49 nM
same,"Percentage inhibition of ligand binding, Adrenergic α1B (0.1 μM)",[3],35%
same,"Percentage inhibition of ligand binding, Adrenergic α1B (0.3 μM)",[3],73%
same,Ki,[3],39.8 nM
